# Results: patent US10472341B2, “Bicyclic tetrahydrothiazepine derivatives useful for the treatment of neoplastic and/or infectious diseases” (APEIRON BIOLOGICS AG, priority 2015, dated 2019)
# Test system: CD8 cells & tumor cell lines (K562, M21, CRL2505, MDA-MB-231, A549, TC71, MG63, RD, U138MG)
# Test: Isolated CD8 cells in co-culture with tumor cell lines of diverse origin: IFN-gamma, IL-2, granzyme
# Format: cell-based, human
# Experimental: Isolated PBMCs, NK cells or CD8 positive cells were plated in Xvivo medium at 1.5*10^5 cells per in 96 well culture plates in the presence of 0.3*10^4 tumor cells where indicated. Cytokine secretion was determined by ELISA, immune cell activation (using Beckman-Coulter Abs CD25-PC5, CD69-PC7), cell viability and numbers by flow cytometry (Beckman-Coulter FC500 or Gallios) using 7-AAD exclusion as criterion for living cells. PBMCs were isolated and incubated with and without compounds, either alone or in co-culture with different tumor cells.
smiles,measurement,setting,value
"Cl.N[C@H]1CS(=O)(=O)c2cc(F)c(C(=O)NCCCC(F)(F)F)cc2N(Cc2ccc(Cl)cc2)C1=O [Example 70, (3R)-3-amino-5-[(4-chlorophenyl)methyl]-8-fluoro-1,1,4-trioxo-N-(4,4,4-trifluoro-butyl)-2,3,4,5-tetrahydro-1λ^6,5-benzothiazepine-7-carboxamide hydrochloride]",Granzyme,"CD8 cells & A549, 0.1 μM",0.04 ng/mL
same,IFN-gamma,"CD8 cells & A549, 0.1 μM",0.01 ng/mL
same,IL-2,"CD8 cells & A549, 0.1 μM",0.00 ng/mL
same,Granzyme,"CD8 cells & A549, 0.3 μM",0.09 ng/mL
same,IFN-gamma,"CD8 cells & A549, 0.3 μM",0.03 ng/mL
same,IL-2,"CD8 cells & A549, 0.3 μM",0.15 ng/mL
same,Granzyme,"CD8 cells & A549, 1 μM",0.10 ng/mL
same,IFN-gamma,"CD8 cells & A549, 1 μM",0.08 ng/mL
same,IL-2,"CD8 cells & A549, 1 μM",0.36 ng/mL
same,Granzyme,"CD8 cells & A549, 3 μM",0.07 ng/mL
same,IFN-gamma,"CD8 cells & A549, 3 μM",0.07 ng/mL
same,IL-2,"CD8 cells & A549, 3 μM",0.28 ng/mL
same,Granzyme,"CD8 cells & A549, 10 μM",0.16 ng/mL
same,IFN-gamma,"CD8 cells & A549, 10 μM",0.16 ng/mL
same,IL-2,"CD8 cells & A549, 10 μM",0.59 ng/mL
same,Granzyme,"CD8 cells & K562, 0.1 μM",1.58 ng/mL
same,IFN-gamma,"CD8 cells & K562, 0.1 μM",6.97 ng/mL
same,IL-2,"CD8 cells & K562, 0.1 μM",3.86 ng/mL
same,Granzyme,"CD8 cells & K562, 0.3 μM",2.38 ng/mL
same,IFN-gamma,"CD8 cells & K562, 0.3 μM",7.57 ng/mL
same,IL-2,"CD8 cells & K562, 0.3 μM",3.20 ng/mL
same,Granzyme,"CD8 cells & K562, 1 μM",1.81 ng/mL
same,IFN-gamma,"CD8 cells & K562, 1 μM",11.23 ng/mL
same,IL-2,"CD8 cells & K562, 1 μM",4.08 ng/mL
same,Granzyme,"CD8 cells & K562, 3 μM",3.91 ng/mL
same,IFN-gamma,"CD8 cells & K562, 3 μM",8.44 ng/mL
same,IL-2,"CD8 cells & K562, 3 μM",3.72 ng/mL
same,Granzyme,"CD8 cells & K562, 10 μM",4.83 ng/mL
same,IFN-gamma,"CD8 cells & K562, 10 μM",8.26 ng/mL
same,IL-2,"CD8 cells & K562, 10 μM",2.82 ng/mL
same,Granzyme,"CD8 cells & M21, 0.1 μM",0.24 ng/mL
same,IFN-gamma,"CD8 cells & M21, 0.1 μM",0.00 ng/mL
same,IL-2,"CD8 cells & M21, 0.1 μM",0.39 ng/mL
same,Granzyme,"CD8 cells & M21, 0.3 μM",0.53 ng/mL
same,IFN-gamma,"CD8 cells & M21, 0.3 μM",0.02 ng/mL
same,IL-2,"CD8 cells & M21, 0.3 μM",0.31 ng/mL
same,Granzyme,"CD8 cells & M21, 1 μM",0.41 ng/mL
same,IFN-gamma,"CD8 cells & M21, 1 μM",0.06 ng/mL
same,IL-2,"CD8 cells & M21, 1 μM",0.67 ng/mL
same,Granzyme,"CD8 cells & M21, 3 μM",0.40 ng/mL
same,IFN-gamma,"CD8 cells & M21, 3 μM",0.03 ng/mL
same,IL-2,"CD8 cells & M21, 3 μM",0.64 ng/mL
same,Granzyme,"CD8 cells & M21, 10 μM",0.50 ng/mL
same,IFN-gamma,"CD8 cells & M21, 10 μM",0.10 ng/mL
same,IL-2,"CD8 cells & M21, 10 μM",0.47 ng/mL
same,Granzyme,"CD8 cells & MDA-MB-231, 0.1 μM",1.86 ng/mL
same,IFN-gamma,"CD8 cells & MDA-MB-231, 0.1 μM",10.72 ng/mL
same,IL-2,"CD8 cells & MDA-MB-231, 0.1 μM",1.51 ng/mL
same,Granzyme,"CD8 cells & MDA-MB-231, 0.3 μM",3.40 ng/mL
same,IFN-gamma,"CD8 cells & MDA-MB-231, 0.3 μM",20.55 ng/mL
same,IL-2,"CD8 cells & MDA-MB-231, 0.3 μM",2.14 ng/mL
same,Granzyme,"CD8 cells & MDA-MB-231, 1 μM",4.23 ng/mL
same,IFN-gamma,"CD8 cells & MDA-MB-231, 1 μM",22.31 ng/mL
same,IL-2,"CD8 cells & MDA-MB-231, 1 μM",2.40 ng/mL
same,Granzyme,"CD8 cells & MDA-MB-231, 3 μM",5.20 ng/mL
same,IFN-gamma,"CD8 cells & MDA-MB-231, 3 μM",25.24 ng/mL
same,IL-2,"CD8 cells & MDA-MB-231, 3 μM",3.21 ng/mL
same,Granzyme,"CD8 cells & MDA-MB-231, 10 μM",5.93 ng/mL
same,IFN-gamma,"CD8 cells & MDA-MB-231, 10 μM",24.22 ng/mL
same,IL-2,"CD8 cells & MDA-MB-231, 10 μM",3.63 ng/mL
same,Granzyme,"CD8 cells & MG63, 0.1 μM",0.23 ng/mL
same,IFN-gamma,"CD8 cells & MG63, 0.1 μM",0.92 ng/mL
same,IL-2,"CD8 cells & MG63, 0.1 μM",0.00 ng/mL
same,Granzyme,"CD8 cells & MG63, 0.3 μM",0.29 ng/mL
same,IFN-gamma,"CD8 cells & MG63, 0.3 μM",1.43 ng/mL
same,IL-2,"CD8 cells & MG63, 0.3 μM",0.00 ng/mL
same,Granzyme,"CD8 cells & MG63, 1 μM",0.28 ng/mL
same,IFN-gamma,"CD8 cells & MG63, 1 μM",1.79 ng/mL
same,IL-2,"CD8 cells & MG63, 1 μM",0.00 ng/mL
same,Granzyme,"CD8 cells & MG63, 3 μM",0.38 ng/mL
same,IFN-gamma,"CD8 cells & MG63, 3 μM",1.92 ng/mL
same,IL-2,"CD8 cells & MG63, 3 μM",0.00 ng/mL
same,Granzyme,"CD8 cells & MG63, 10 μM",0.44 ng/mL
same,IFN-gamma,"CD8 cells & MG63, 10 μM",2.36 ng/mL
same,IL-2,"CD8 cells & MG63, 10 μM",0.00 ng/mL
same,Granzyme,"CD8 cells & RD, 0.1 μM",0.09 ng/mL
same,IFN-gamma,"CD8 cells & RD, 0.1 μM",0.12 ng/mL
same,IL-2,"CD8 cells & RD, 0.1 μM",0.00 ng/mL
same,Granzyme,"CD8 cells & RD, 0.3 μM",0.16 ng/mL
same,IFN-gamma,"CD8 cells & RD, 0.3 μM",0.45 ng/mL
same,IL-2,"CD8 cells & RD, 0.3 μM",0.00 ng/mL
same,Granzyme,"CD8 cells & RD, 1 μM",0.20 ng/mL
same,IFN-gamma,"CD8 cells & RD, 1 μM",0.54 ng/mL
same,IL-2,"CD8 cells & RD, 1 μM",0.00 ng/mL
same,Granzyme,"CD8 cells & RD, 3 μM",0.17 ng/mL
same,IFN-gamma,"CD8 cells & RD, 3 μM",0.65 ng/mL
same,IL-2,"CD8 cells & RD, 3 μM",0.00 ng/mL
same,Granzyme,"CD8 cells & RD, 10 μM",0.30 ng/mL
same,IFN-gamma,"CD8 cells & RD, 10 μM",1.59 ng/mL
same,IL-2,"CD8 cells & RD, 10 μM",0.00 ng/mL
same,Granzyme,"CD8 cells & TC71, 0.1 μM",0.06 ng/mL
same,IFN-gamma,"CD8 cells & TC71, 0.1 μM",0.04 ng/mL
same,IL-2,"CD8 cells & TC71, 0.1 μM",0.58 ng/mL
same,Granzyme,"CD8 cells & TC71, 0.3 μM",0.08 ng/mL
same,IFN-gamma,"CD8 cells & TC71, 0.3 μM",0.11 ng/mL
same,IL-2,"CD8 cells & TC71, 0.3 μM",0.97 ng/mL
same,Granzyme,"CD8 cells & TC71, 1 μM",0.10 ng/mL
same,IFN-gamma,"CD8 cells & TC71, 1 μM",0.14 ng/mL
same,IL-2,"CD8 cells & TC71, 1 μM",1.25 ng/mL
same,Granzyme,"CD8 cells & TC71, 3 μM",0.10 ng/mL
same,IFN-gamma,"CD8 cells & TC71, 3 μM",0.27 ng/mL
same,IL-2,"CD8 cells & TC71, 3 μM",1.14 ng/mL
same,Granzyme,"CD8 cells & TC71, 10 μM",0.15 ng/mL
same,IFN-gamma,"CD8 cells & TC71, 10 μM",0.38 ng/mL
same,IL-2,"CD8 cells & TC71, 10 μM",1.57 ng/mL
same,Granzyme,"CD8 cells & U138MG, 0.1 μM",0.03 ng/mL
same,IFN-gamma,"CD8 cells & U138MG, 0.1 μM",0.00 ng/mL
same,IL-2,"CD8 cells & U138MG, 0.1 μM",0.00 ng/mL
same,Granzyme,"CD8 cells & U138MG, 0.3 μM",0.04 ng/mL
same,IFN-gamma,"CD8 cells & U138MG, 0.3 μM",0.01 ng/mL
same,IL-2,"CD8 cells & U138MG, 0.3 μM",0.00 ng/mL
same,Granzyme,"CD8 cells & U138MG, 1 μM",0.01 ng/mL
same,IFN-gamma,"CD8 cells & U138MG, 1 μM",0.02 ng/mL
same,IL-2,"CD8 cells & U138MG, 1 μM",0.04 ng/mL
same,Granzyme,"CD8 cells & U138MG, 3 μM",0.03 ng/mL
same,IFN-gamma,"CD8 cells & U138MG, 3 μM",0.02 ng/mL
same,IL-2,"CD8 cells & U138MG, 3 μM",0.02 ng/mL
same,Granzyme,"CD8 cells & U138MG, 10 μM",0.05 ng/mL
same,IFN-gamma,"CD8 cells & U138MG, 10 μM",0.06 ng/mL
same,IL-2,"CD8 cells & U138MG, 10 μM",0.08 ng/mL
same,Granzyme,"CD8 cells only, 0.1 μM",0.05 ng/mL
same,IFN-gamma,"CD8 cells only, 0.1 μM",0.00 ng/mL
same,IL-2,"CD8 cells only, 0.1 μM",0.00 ng/mL
same,Granzyme,"CD8 cells only, 0.3 μM",0.04 ng/mL
same,IFN-gamma,"CD8 cells only, 0.3 μM",0.00 ng/mL
same,IL-2,"CD8 cells only, 0.3 μM",0.00 ng/mL
same,Granzyme,"CD8 cells only, 1 μM",0.05 ng/mL
same,IFN-gamma,"CD8 cells only, 1 μM",0.00 ng/mL
same,IL-2,"CD8 cells only, 1 μM",0.00 ng/mL
same,Granzyme,"CD8 cells only, 3 μM",0.04 ng/mL
same,IFN-gamma,"CD8 cells only, 3 μM",0.00 ng/mL
same,IL-2,"CD8 cells only, 3 μM",0.00 ng/mL
same,Granzyme,"CD8 cells only, 10 μM",0.05 ng/mL
same,IFN-gamma,"CD8 cells only, 10 μM",0.00 ng/mL
same,IL-2,"CD8 cells only, 10 μM",0.00 ng/mL
